Experimental data published in patent US20060167001A1, “Pyridazinone-derivatives as pde4 inhibitors” (priority 2002, published 2006).
Where a name gives a salt, the structure may show the parent alone.

What was measured:
PDE3 (cGMP-inhibited) = target: T1, PDE3 (cGMP-inhibited) (Homo sapiens, UniProt Q14432); assay: Inhibition of PDE3 activity, Method A (homogenates of human platelets); format: biochemical; conditions: read-out: PDE3 Inhibition [measured as −logIC50 (mol/l)] (converted)
T1 construct: investigated in homogenates of human platelets; from tissue; host or cells: homogenates of human platelets
T1 sequence (Q14432 whole entry): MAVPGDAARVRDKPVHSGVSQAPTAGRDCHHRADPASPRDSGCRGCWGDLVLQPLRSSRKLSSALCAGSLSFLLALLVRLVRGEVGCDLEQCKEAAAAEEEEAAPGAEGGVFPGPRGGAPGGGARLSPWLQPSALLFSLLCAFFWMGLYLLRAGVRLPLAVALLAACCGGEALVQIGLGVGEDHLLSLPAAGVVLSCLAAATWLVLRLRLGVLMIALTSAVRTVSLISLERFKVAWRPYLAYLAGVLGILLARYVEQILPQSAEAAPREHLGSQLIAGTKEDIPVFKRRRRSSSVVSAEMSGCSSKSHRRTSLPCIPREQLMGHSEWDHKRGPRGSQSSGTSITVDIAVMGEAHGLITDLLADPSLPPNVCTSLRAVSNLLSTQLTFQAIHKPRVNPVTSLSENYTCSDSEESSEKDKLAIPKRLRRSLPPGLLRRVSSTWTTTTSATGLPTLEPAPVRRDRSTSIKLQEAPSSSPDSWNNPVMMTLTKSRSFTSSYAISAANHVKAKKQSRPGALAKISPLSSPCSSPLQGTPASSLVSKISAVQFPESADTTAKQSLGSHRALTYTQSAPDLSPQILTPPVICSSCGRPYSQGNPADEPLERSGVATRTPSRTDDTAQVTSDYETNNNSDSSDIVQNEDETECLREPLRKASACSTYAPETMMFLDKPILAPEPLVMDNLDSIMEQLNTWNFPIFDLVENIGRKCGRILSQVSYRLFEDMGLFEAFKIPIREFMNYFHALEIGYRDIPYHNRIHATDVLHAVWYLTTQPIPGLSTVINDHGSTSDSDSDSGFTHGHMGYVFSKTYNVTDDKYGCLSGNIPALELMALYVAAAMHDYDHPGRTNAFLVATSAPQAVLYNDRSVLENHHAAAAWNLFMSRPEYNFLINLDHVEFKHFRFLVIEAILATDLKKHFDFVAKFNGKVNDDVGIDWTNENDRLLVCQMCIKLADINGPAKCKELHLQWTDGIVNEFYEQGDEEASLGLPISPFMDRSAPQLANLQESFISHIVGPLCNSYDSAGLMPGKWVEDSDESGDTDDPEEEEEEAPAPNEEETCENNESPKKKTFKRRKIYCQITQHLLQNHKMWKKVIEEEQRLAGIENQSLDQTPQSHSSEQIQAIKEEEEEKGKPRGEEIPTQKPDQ
Procedure: The PDE activity was determined according to Thompson et al. (Adv Cycl Nucl Res 10: 69-92, 1979) with some modifications (Bauer and Schwabe, Naunyn-Schmiedeberg's Arch Pharmacol 311: 193-198, 1980). The test samples contained 20 mM Tris (pH 7.4), 5 mM MgCl2, 0.5 μM cAMP or cGMP, [^3H]cAMP or [^3H]cGMP (about 30 000 cpm/sample), the PDE isoenzyme-specific additives described in greater detail below, the indicated concentrations of inhibitor and an aliquot of the enzyme solution in a total sample volume of 200 μl. Dilution series of the compounds according to the invention were prepared in DMSO and further diluted in the samples [1:100 (v/v)], to give the desired end concentration of the inhibitors at a DMSO concentration of 1% (v/v), which for its part has only a minute effect on PDE activity.
After preincubation at 37° C. for 5 minutes, the reaction was started by addition of the substrate (cAMP or cGMP). The samples were incubated at 37° C. for a further 15 min. The reaction was terminated by addition of 50 μl 0.2 N HCl. After cooling on ice for 10 minutes and addition of 25 μg 5′-nucleotidase (snake venom from Crotalus atrox), the mixture was again incubated at 37° C. for 10 mih and the samples were then applied to QAE Sephadex A-25 columns (sample volume 1 ml). The columns were eluted with 2 ml of 30 mM ammonium formate (pH 6.0). The radioactivity of the eluate was measured and corrected by the corresponding blank values (measured in the presence of denatured protein); the blank values were less than 5% of the total radioactivity. In no case did the proportion of hydrolyzed nucleotide exceed 30% of the original substrate concentration.
PDE3 (cGMP-inhibited) was investigated in homogenates of human platelets (see Schudt et al., Biochem Pharmacol 1991: 42, 153-162) using cAMP or cGMP as substrate.
The IC50 values were determined from the concentration-inhibition curves by nonlinear regression.

Question: Which melting point does the source give for COc1ccc(C2=NN(C3CCNCC3)C(=O)CC2C)cc1OC.Cl (stereo not drawn) here?
Answer: The melting point was 91 to 95 °C.

Question: With COc1ccc(C2=NN(C3CCN(C(=O)CN4CCN(c5ccccc5OC)CC4)CC3)C(=O)CC2)cc1OC.Cl.Cl as the molecule, how does the melting point read?
Answer: The melting point was 109 to 110 °C.

Question: Which melting point does the source give for COc1ccc(C2=NN(C3CCN(CC(=O)N4CCOCC4)CC3)C(=O)CC2)cc1OC (as salt: hydrochloride) [Compound 10, 6-(3,4-Dimethoxy-phenyl)-2-[1-(2-morpholin4-yl-2-oxo-ethyl)-piperidin-4-yl]-4,5-dihydro-2-pyridazin-3-one hydrochloride] here?
Answer: The melting point was 145 to 148 °C.

Question: For COc1ccc(C2=NN(C3CCN(C(C)=O)CC3)C(=O)CC2C)cc1OC (stereo not drawn) [Compound 4, 2-(1-Acetyl-piperidin-4-yl)-6-(3,4-dimethoxy-phenyl)-5-methyl-4,5-dihydro-2H-pyridazin-3-one], which IC50 (PDE3 (cGMP-inhibited)) is on record?
Answer: The IC50 was 1740 nM.

Question: And the melting point?
Answer: The melting point was 149 to 152 °C.

Question: For COc1ccc(C2=NN(C3CCN(C(=O)N4CCOCC4)CC3)C(=O)CC2C)cc1OC (stereo not drawn) [Compound 5], which IC50 (PDE3 (cGMP-inhibited)) is on record?
Answer: Its IC50 is 1780 nM.

Question: And the melting point?
Answer: The melting point was 137 to 138 °C.

Question: Which results are given for COc1ccc(C2=NN(C3CCN(Cc4cccnc4)CC3)C(=O)CC2C)cc1OC.Cl.Cl (stereo not drawn) [Compound 6, 6-(3,4-Dimethoxy-phenyl)-5-methyl-2-(1-pyridin-3-ylmethyl-piperidin-4-yl)-4,5-dihydro-2H-pyridazin-3-one dihydrochloride]?
Answer: IC50 (PDE3 (cGMP-inhibited)): 5890 nM; melting point: 241 to 244 °C

Question: With CCN1CCN(C(=O)N2CCC(N3N=C(c4ccc(OC)c(OC)c4)CCC3=O)CC2)C(=O)C1=O [Compound 7] as the molecule, how does the IC50 (PDE3 (cGMP-inhibited)) read?
Answer: The IC50 was > 10000 nM.

Question: What about the melting point of the same molecule?
Answer: Its melting point is 201 to 203 °C.

Question: For COc1ccc(C2=NN(C3CCN(C(=O)N4CCN(C)CC4)CC3)C(=O)CC2)cc1OC.Cl [Compound 8, 6-(3,4-Dimethoxy-phenyl)-2-{1-[1-(4-methyl-piperazin-1-yl)-methanoyl]-piperidin-4-yl}-4,5-dihydro-2H-pyridazin-3-one hydrochloride], which IC50 (PDE3 (cGMP-inhibited)) is on record?
Answer: The IC50 was > 10000 nM.

Question: And the melting point?
Answer: The melting point was 151 to 154 °C.

Question: Which IC50 (PDE3 (cGMP-inhibited)) does the source give for COc1ccc(C2=NN(C3CCN(S(=O)(=O)c4cccc5c(N(C)C)cccc45)CC3)C(=O)CC2)cc1OC [Compound 9, 6-(3,4-Dimethoxy-phenyl)-2-[1-(5-dimethylamino-naphthalene-1-sulfonyl)-piperidin-4-yl]-4,5-dihydro-2-pyridazin-3-one] here?
Answer: The IC50 was 245 nM.

Question: And the melting point?
Answer: Its melting point is 191 to 193 °C.

Question: Which IC50 (PDE3 (cGMP-inhibited)) does the source give for COc1ccc(C2=NN(C3CCN(CC(=O)N4CCOCC4)CC3)C(=O)CC2)cc1OC [Compound 10, 6-(3,4-Dimethoxy-phenyl)-2-[1-(2-morpholin4-yl-2-oxo-ethyl)-piperidin-4-yl]-4,5-dihydro-2-pyridazin-3-one hydrochloride] here?
Answer: Its IC50 is 4470 nM.

Question: With COc1ccc(C2=NN(C3CCN(S(=O)(=O)c4ccc(C)cc4)CC3)C(=O)CC2)cc1OC [Compound 11, 6-(3,4-Dimethoxy-phenyl)-2-[1-(toluene-4-sulfonyl)-piperidin-4-yl]-4,5-dihydro-2H-pyridazin-3-one] as the molecule, how does the IC50 (PDE3 (cGMP-inhibited)) read?
Answer: The IC50 was 501 nM.

Question: And the melting point?
Answer: The melting point was 179 to 184 °C.

Question: Which IC50 (PDE3 (cGMP-inhibited)) does the source give for COc1ccc(C2=NN(C3CCN(S(C)(=O)=O)CC3)C(=O)CC2)cc1OC [Compound 12, 6-(3,4-Dimethoxy-phenyl)-2-(1-methanesulfonyl-piperidin-4-yl)-4,5-dihydro-2H-pyridazin-3-one] here?
Answer: Its IC50 is 251 nM.

Question: What about the melting point of the same molecule?
Answer: The melting point was 164 to 166 °C.

Question: For COc1ccc(C2=NN(C3CCN(S(=O)(=O)c4ccc(Cl)cc4)CC3)C(=O)CC2)cc1OC [Compound 13, 2-[1-(4-Chloro-benzenesulfonyl)-piperidin-4-yl]-6-(3,4-dimethoxy-phenyl)-4,5-dihydro-2H-pyridazin-3-one], which melting point is on record?
Answer: Its melting point is 185 to 186 °C.

Question: What does the source list for COc1ccc(C2=NN(C3CCN(S(=O)(=O)Cc4ccccc4)CC3)C(=O)CC2)cc1OC [Compound 14, 6-(3,4-Dimethoxy-phenyl)-2-(1-phenylmethanesulfonyl-piperidin-4-yl)-4,5-dihydro-2H-pyridazin-3-one]?
Answer: IC50 (PDE3 (cGMP-inhibited)): 251 nM; melting point: 114 °C

Question: For COc1ccc(S(=O)(=O)N2CCC(N3N=C(c4ccc(OC)c(OC)c4)CCC3=O)CC2)cc1 [Compound 15, 6-(3,4-Dimethoxy-phenyl)-2-[1-(4-methoxy-benzenesulfonyl)-piperidin-4-yl]-4,5-dihydro-2H-pyridazin-3-one], which IC50 (PDE3 (cGMP-inhibited)) is on record?
Answer: Its IC50 is 501 nM.

Question: And the melting point?
Answer: The melting point was 197 to 198 °C.

Question: Which IC50 (PDE3 (cGMP-inhibited)) does the source give for COc1ccc(C2=NN(C3CCN(S(=O)(=O)c4ccccc4C#N)CC3)C(=O)CC2)cc1OC [Compound 18, 2-{4-[3-(3,4-Dimethoxy-phenyl)-6-oxo-5,6-dihydro-4H-pyridazin-1-yl]-piperidine-1-sulfonyl}-benzonitrile] here?
Answer: Its IC50 is 79.4 nM.

Question: What about the melting point of the same molecule?
Answer: The melting point was 158 to 160 °C.

Question: What does the source list for COc1ccc(C2=NN(C3CCN(S(=O)(=O)c4ccccc4F)CC3)C(=O)CC2)cc1OC [Compound 20, 6-(3,4-Dimethoxy-phenyl)-2-[1-(2-fluoro-benzenesulfonyl)-Piperidin-4-yl]-4,5-dihydro-2H-pyridazin-3-one]?
Answer: IC50 (PDE3 (cGMP-inhibited)): 158 nM; melting point: 198 to 199 °C

Question: For COc1ccc(C2=NN(C3CCN(S(=O)(=O)c4ccccc4OC(F)(F)F)CC3)C(=O)CC2)cc1OC [Compound 21, 6-(3,4-Dimethoxy-phenyl)-2-[1-(2-trifluoromethoxy-benzenesulfonyl)-piperidin-4-yl]-4,5-dihydro-2H-pyridazin-3-one], which IC50 (PDE3 (cGMP-inhibited)) is on record?
Answer: Its IC50 is 100 nM.

Question: And the melting point?
Answer: Its melting point is 118 to 119 °C.

Question: Which melting point does the source give for COc1ccc(C2=NN(C3CCN(S(=O)(=O)N(C)C)CC3)C(=O)CC2)cc1OC [Compound 22, 4-[3-(3,4-Dimethoxy-phenyl)-6-oxo-5,6-dihydro-4H-pyridazin-1-yl]-piperidine-1-sulfonic acid dimethylamide] here?
Answer: Its melting point is 103 to 106 °C.

Question: Which melting point does the source give for COc1ccc(C2=NN(C3CCN(C(=O)c4cccnc4)CC3)C(=O)CC2)cc1OC [Compound 24, 6-(3,4-Dimethoxy-phenyl)-2-[1-(1-pyridin-3-yl-methanoyl)-piperidin-4-yl]-4,5-dihydro-2H-pyridazin-3-one] here?
Answer: The melting point was 162 to 164 °C.

Question: Which melting point does the source give for COc1ccc(C2=NN(C3CCN(C(=O)NC(C)(C)C)CC3)C(=O)CC2)cc1OC [Compound 26, 4-[3-(3,4-Dimethoxy-phenyl)-6-oxo-5,6-dihydro-4H-pyridazin-1-yl]-piperidine-1-carboxylic acid tert-butylamide] here?
Answer: The melting point was 76 to 78 °C.

Question: What does the source list for COc1ccc(C2=NN(C3CCN(CC(=O)N(C)C)CC3)C(=O)CC2)cc1OC.Cl [Compound 27, 2-{4-[3-(3,4-Dimethoxy-phenyl)-6-oxo-5,6-dihydro-4H-pyridazin-1-yl]-piperidin-1-yl}-N,N-dimethylacetamide hydrochloride]?
Answer: IC50 (PDE3 (cGMP-inhibited)): > 10000 nM; melting point: 121 to 122 °C
